{"source": "paper PMC9504029", "about": "“Identification and Characterization of Novel Small-Molecule SMOX Inhibitors” (Medical Sciences, 2022)", "key": {"LSD1": {"molecular_target": "T1, LSD1 (Homo sapiens, UniProt O60341)", "T1 construct": "purchased Cayman Chemical #700120", "test": "LSD1 selectivity assay (Cayman kit, resorufin fluorescence)", "type": "biochemical", "settings": "read-out: % Inhibition at 20 μM ± SD, LSD1"}, "recombinant human MAO-B": {"molecular_target": "T2, recombinant human MAO-B (Homo sapiens, UniProt P27338)", "T2 construct": "purchased Sigma-Aldrich M7441-1VL", "T2 sequence (P27338 1-520)": "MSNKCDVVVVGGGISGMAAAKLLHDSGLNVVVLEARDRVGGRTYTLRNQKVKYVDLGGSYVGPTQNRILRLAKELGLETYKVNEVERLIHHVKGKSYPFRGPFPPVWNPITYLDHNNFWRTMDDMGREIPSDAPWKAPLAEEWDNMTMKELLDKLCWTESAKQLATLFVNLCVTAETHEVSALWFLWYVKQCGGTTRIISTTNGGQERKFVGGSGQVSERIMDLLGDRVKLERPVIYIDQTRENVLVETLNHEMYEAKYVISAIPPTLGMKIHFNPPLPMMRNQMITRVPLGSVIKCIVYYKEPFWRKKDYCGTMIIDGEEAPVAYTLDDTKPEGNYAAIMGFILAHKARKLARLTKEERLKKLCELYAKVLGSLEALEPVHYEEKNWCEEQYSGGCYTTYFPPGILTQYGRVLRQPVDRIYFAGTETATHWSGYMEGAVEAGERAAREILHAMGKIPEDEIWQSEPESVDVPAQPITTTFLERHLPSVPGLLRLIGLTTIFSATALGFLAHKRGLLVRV", "test": "MAO-Glo assay, MAO-B", "type": "biochemical", "settings": "read-out: % Inhibition at 20 μM ± SD, MAO-B", "description": "To determine selectivity, the compounds were tested for activity against the related FAD-dependent amine oxidase enzymes LSD1, MAO-A, and MAO-B. LSD1 activity was assessed using a commercially available assay kit (#700120, Cayman Chemical, Ann Arbor, MI, USA), in which the enzyme activity was determined by the horseradish peroxidase-catalyzed oxidation of 10-acetyl-3,7-dihydroxyphenoxazine to the highly fluorescent resorufin in response to H2O2 production. Monoamine oxidase activity was determined using recombinant human MAO-A and MAO-B (M7316-1VL & M7441-1VL, Sigma-Aldrich, St. Louis, MO, USA) and a commercially available assay kit (#V1401, MAO-Glo, Promega, Madison, WI, USA), which utilizes the MAO-catalyzed oxidation of a luciferin derivative coupled with esterase activity to produce luminescence. Fluorescent and luminescent readout was obtained using a SpectraMax M5 plate reader (Molecular Devices) equipped with SOFTmax PRO 7.0.3 software. […] Values were reported as mean % inhibition ± SD of triplicate assay wells normalized to background activity and compared to the vehicle control."}, "[1]": {"system": "SH-SY5Y neuroblastoma cells", "test": "Cell viability following excitotoxic stress (glutamate), MTS assay", "type": "cell-based, human", "settings": "80 mM glutamate", "description": "SH-SY5Y neuroblastoma cells purchased from ATCC (Manassas, VA, USA) were cultured in Dulbecco’s modified Eagle medium (DMEM) without phenol red and supplemented with 10% heat inactivated human AB serum, 4 mM L-glutamine, and 1% penicillin/streptomycin. As the oxidation of spermine by various polyamine oxidases has been documented in cell culture containing ruminant serum, such as in fetal bovine serum (FBS) and horse serum, human AB serum was used to prevent assay interference. The cells were maintained in 5% CO2 humidified atmosphere at 37 °C. Cell media was replaced every 2 days and the cells were discarded after a maximum of 15 passages.\nThe SH-SY5Y neuroblastoma cells were plated at a density of 1 × 10^6 cells/mL in 96-well plates (Costar #9018; clear flat bottom) and allowed to adhere overnight. Media was aspirated and the cells were then treated with low-serum culture media (containing 5% human AB serum), 80 mM of glutamate, and varying concentrations of compound. The glutamate and test compounds were added simultaneously with no pre-incubation period. Cell viability was measured at 16 h and 24 h post-treatment by a standard MTS assay (0.33 mg/mL incubated at 37 °C for 3 h). Absorbance was read at 490 nm following 3-h incubation with MTS reagent. […]"}, "SH-SY5Y cells": {"system": "SH-SY5Y cells", "test": "ROS production following acute excitotoxic stress, CM-H2DCFDA", "type": "cell-based, human", "settings": "8 mM glutamate, 1 h, p < 0.0001", "description": "To measure intracellular ROS production following acute excitotoxic stress, a CM-H2DCFDA (Invitrogen) probe was used. The SH-SY5Y cells were incubated in the presence of dichlorodihydrofluorescein diacetate (CM-H2DCFDA, Invitrogen), 20 µM in HBSS, at 37 °C for 30 min. The cells were then pelleted and washed with HBSS buffer (without phenol red, magnesium, or calcium). Phosphate buffer was not used to prevent the formation of polyamine–phosphate complexes. The cells were then resuspended in 96-well plates (Greiner #655086; black walled, cleat flat bottom) at a concentration of 1 × 10^6 cells/mL in HBSS containing 0–100 µM of inhibitor and 8 mM of glutamate. Dichlorodihydrofluorescein (DCF) fluorescence was monitored over 1 h (ex 488 nm, em 530 nm). The increase in fluorescence was reported as the % activity of control wells in the absence of the inhibitor. Fluorescent readout was obtained using a SpectraMax M5 plate reader (Molecular Devices) equipped with SOFTmax PRO 7.0.3 software. All test compounds were assessed for fluorescent activity at 530 nm prior to experimentation. The statistical analysis was conducted in GraphPad Prism 9.3 software (Graph-Pad, San Diego, California) using a one-way ANOVA with multiple comparisons (α = 0.05)."}}, "data": [{"molecule": "Cc1cc([C@H](O)CNCCCNC(=N)N)cc(C)c1O", "note": "[Compound 6]", "values": [{"measurement": "inhibition at 20 µM", "setting": "LSD1", "result": "-24.2 ± 4.5", "unit": "%"}, {"measurement": "inhibition at 20 µM", "setting": "recombinant human MAO-B", "result": "-13.7 ± 3.8", "unit": "%"}, {"measurement": "Cell viability vs vehicle control and MDL 72527", "setting": "[1]; 24 h, 1 mM compound, p = 0.0001 vs vehicle, p = 0.0003 vs MDL 72527", "result": "significantly increased cell viability"}, {"measurement": "viability at 100 µM", "setting": "[1]; Homo sapiens, SH-SY5Y, 16 h, 100 µM compound, vehicle 26.5%, not statistically significant", "result": 48.3, "unit": "%"}, {"measurement": "Production of ROS vs vehicle control", "setting": "SH-SY5Y cells; 10 µM compound", "result": "significantly decreased the production of ROS"}, {"measurement": "Production of ROS vs vehicle control", "setting": "SH-SY5Y cells; 50 µM compound, p = 0.0004 vs 10 µM", "result": "significantly decreased the production of ROS"}]}]}
